Results as given in patent US20120165223A1 (priority 2006, published 2012).

Tested on: crypt cells of the colon of HFA mice
Test: DNA chip showing specific responses to human intestinal normal bacterial flora, colistin-treated HFA mice
Settings: 500 μg/Ml in drinking water three weeks
[1] = colon crypt cells, then halted one week

Description: The colon is collected and the gene expression of crypt cells obtained from the colon is compared with the control group (HFA mice).
In other words, the material or the food is orally administered to HFA mice, which are autopsied along with control HFA mice not having been administered. The crypt cells of the colon are collected to separate RNA. Next, the separated RNA is amplified and Cy3 fluorescence material is labelled on the genes of HFA mice and Cy5 fluorescence material is labelled on the genes of the administered group to react with the gene chip which is a product of the present invention to get the difference of expressions of the 90 genes.
RNA is collected and amplified from the crypt cells of the colon to manufacture a DNA chip, which is reacted with RNA of HFA mice being the control group. The degree of expressing genes and the change of composition of intestinal normal bacterial flora of the colon and the activity of the enzymes produced by the human intestinal bacterial flora such as glucuomidase, glucosidase, nitrate reductase and azoreductase are investigated and used as an index showing the disruption of the human intestinal normal bacterial flora.

colistin sulfate
Disruption of the human intestinal normal bacterial flora, recovery after stop of administration (one week after stop): not recovered in one week after the administration of colistin is stopped | Number of genes in total showing a difference by more than 1.5 times in comparison with the control group (then halted one week): 38 genes | Number of the 90 genes with the same tendency of increase and decrease as observed when the flora is disturbed (then halted one week): 25 genes | 1110037F02Rik gene expression HFA-Coli/HFA [1]: 13.33 | 1110037F02Rik gene expression, HFA-Coli [1]: 133.2 | 1110038M16Rik gene expression HFA-Coli/HFA [1]: 1.355 | 1110038M16Rik gene expression, HFA-Coli [1]: 195.8 | 1700012H17Rik gene expression HFA-Coli/HFA [1]: 0.969 | 1700012H17Rik gene expression, HFA-Coli [1]: 594.0 | 2610529I12Rik gene expression HFA-Coli/HFA [1]: 1.049 | 2610529I12Rik gene expression, HFA-Coli [1]: 1108 | 4732481h14Rik gene expression HFA-Coli/HFA [1]: 0.750 | 4732481h14Rik gene expression, HFA-Coli [1]: 209.2 | 4930455F23Rik gene expression HFA-Coli/HFA [1]: 0.851 | 4930455F23Rik gene expression, HFA-Coli [1]: 634.5 | 5031404N19 gene expression HFA-Coli/HFA [1]: 0.956 | 5031404N19 gene expression, HFA-Coli [1]: 444.2 | 5430437F03Rik gene expression HFA-Coli/HFA [1]: 1.826 | 5430437F03Rik gene expression, HFA-Coli [1]: 485.8 | 6330590F17Rik gene expression HFA-Coli/HFA [1]: 1.341 | 6330590F17Rik gene expression, HFA-Coli [1]: 84.50 | 9830148O20Rik gene expression HFA-Coli/HFA [1]: 1.400 | 9830148O20Rik gene expression, HFA-Coli [1]: 815.0 | Alas1 gene expression HFA-Coli/HFA [1]: 1.857 | Alas1 gene expression, HFA-Coli [1]: 577.0 | Aldh6a1 gene expression HFA-Coli/HFA [1]: 0.971 | Aldh6a1 gene expression, HFA-Coli [1]: 286.5 | Au043625 gene expression HFA-Coli/HFA [1]: 1.167 | Au043625 gene expression, HFA-Coli [1]: 336.5 | Bnip3l gene expression HFA-Coli/HFA [1]: 1.753 | Bnip3l gene expression, HFA-Coli [1]: 729.5 | C130039O16 gene expression HFA-Coli/HFA [1]: 1.160 | C130039O16 gene expression, HFA-Coli [1]: 680.0 | CPd gene expression HFA-Coli/HFA [1]: 0.848 | CPd gene expression, HFA-Coli [1]: 587.8 | Cacnb3 gene expression HFA-Coli/HFA [1]: 0.649 | Cacnb3 gene expression, HFA-Coli [1]: 661.2 | Cav gene expression HFA-Coli/HFA [1]: 1.029 | Cav gene expression, HFA-Coli [1]: 206.0 | Ccnd2 gene expression HFA-Coli/HFA [1]: 0.839 | Ccnd2 gene expression, HFA-Coli [1]: 315.5 | Cdc45l gene expression HFA-Coli/HFA [1]: 1.652 | Cdc45l gene expression, HFA-Coli [1]: 100.8 | Cited1 gene expression HFA-Coli/HFA [1]: 1.222 | Cited1 gene expression, HFA-Coli [1]: 289.0 | Ckap2 gene expression HFA-Coli/HFA [1]: 1.661 | Ckap2 gene expression, HFA-Coli [1]: 548.0 | Cldn8 gene expression HFA-Coli/HFA [1]: 1.195 | Cldn8 gene expression, HFA-Coli [1]: 406.5 | Col3a1 gene expression HFA-Coli/HFA [1]: 2.136 | Col3a1 gene expression, HFA-Coli [1]: 441.0 | Cotl11 gene expression HFA-Coli/HFA [1]: 1.883 | Cotl11 gene expression, HFA-Coli [1]: 1227 | Crem gene expression HFA-Coli/HFA [1]: 0.890 | Crem gene expression, HFA-Coli [1]: 355.8 | Crsp7 gene expression HFA-Coli/HFA [1]: 2.045 | Crsp7 gene expression, HFA-Coli [1]: 1218 | Cul4b gene expression HFA-Coli/HFA [1]: 1.715 | Cul4b gene expression, HFA-Coli [1]: 91.75 | D230019K24Rik gene expression HFA-Coli/HFA [1]: 2.598 | D230019K24Rik gene expression, HFA-Coli [1]: 142.2 | Daf1 gene expression HFA-Coli/HFA [1]: 2.085 | Daf1 gene expression, HFA-Coli [1]: 419.0 | Dap3 gene expression HFA-Coli/HFA [1]: 1.274 | Dap3 gene expression, HFA-Coli [1]: 634.5 | Dcamkl1 gene expression HFA-Coli/HFA [1]: 0.679 | Dcamkl1 gene expression, HFA-Coli [1]: 615.2 | Ddx1 gene expression HFA-Coli/HFA [1]: 1.094 | Ddx1 gene expression, HFA-Coli [1]: 370.0 | Eif2ak3 gene expression HFA-Coli/HFA [1]: 1.274 | Eif2ak3 gene expression, HFA-Coli [1]: 685.0 | Epc1 gene expression HFA-Coli/HFA [1]: 1.452 | Epc1 gene expression, HFA-Coli [1]: 228.8 | Fads3 gene expression HFA-Coli/HFA [1]: 1.422 | Fads3 gene expression, HFA-Coli [1]: 409.2 | Fn3k gene expression HFA-Coli/HFA [1]: 0.785 | Fn3k gene expression, HFA-Coli [1]: 415.5 | Gmnn gene expression HFA-Coli/HFA [1]: 0.997 | Gmnn gene expression, HFA-Coli [1]: 673.8 | Gstm2 gene expression HFA-Coli/HFA [1]: 0.944 | Gstm2 gene expression, HFA-Coli [1]: 164.8 | Guca1a gene expression HFA-Coli/HFA [1]: 1.553 | Guca1a gene expression, HFA-Coli [1]: 417.0 | Hdac5 gene expression HFA-Coli/HFA [1]: 0.949 | Hdac5 gene expression, HFA-Coli [1]: 473.8 | Hsd17b2 gene expression HFA-Coli/HFA [1]: 1.453 | Hsd17b2 gene expression, HFA-Coli [1]: 1737 | Igj gene expression HFA-Coli/HFA [1]: 0.888 | Igj gene expression, HFA-Coli [1]: 210.5 | Il16 gene expression HFA-Coli/HFA [1]: 1.470 | Il16 gene expression, HFA-Coli [1]: 568.0 | Il18 gene expression HFA-Coli/HFA [1]: 1.094 | Il18 gene expression, HFA-Coli [1]: 531.5 | Ipo4 gene expression HFA-Coli/HFA [1]: 2.566 | Ipo4 gene expression, HFA-Coli [1]: 140.5 | Keap1 gene expression HFA-Coli/HFA [1]: 0.687 | Keap1 gene expression, HFA-Coli [1]: 564.0 | Klf3 gene expression HFA-Coli/HFA [1]: 0.764 | Klf3 gene expression, HFA-Coli [1]: 195.8 | Lnx1 gene expression HFA-Coli/HFA [1]: 0.171 | Lnx1 gene expression, HFA-Coli [1]: 98.25 | Lrp10 gene expression HFA-Coli/HFA [1]: 2.132 | Lrp10 gene expression, HFA-Coli [1]: 1648 | Mcpt4 gene expression HFA-Coli/HFA [1]: 1.505 | Mcpt4 gene expression, HFA-Coli [1]: 181.8 | Mllt1 gene expression HFA-Coli/HFA [1]: 0.781 | Mllt1 gene expression, HFA-Coli [1]: 502.8 | Mpp1 gene expression HFA-Coli/HFA [1]: 0.874 | Mpp1 gene expression, HFA-Coli [1]: 638.0 | Mt-1 gene expression HFA-Coli/HFA [1]: 3.610 | Mt-1 gene expression, HFA-Coli [1]: 2033 | Mtmr7 gene expression HFA-Coli/HFA [1]: 2.084 | Mtmr7 gene expression, HFA-Coli [1]: 173.0 | Mut gene expression HFA-Coli/HFA [1]: 1.238 | Mut gene expression, HFA-Coli [1]: 999.5 | Ncoa6 gene expression HFA-Coli/HFA [1]: 3.070 | Ncoa6 gene expression, HFA-Coli [1]: 374.5 | Npm1 gene expression HFA-Coli/HFA [1]: 1.840 | Npm1 gene expression, HFA-Coli [1]: 350.0 | Parva gene expression HFA-Coli/HFA [1]: 1.330 | Parva gene expression, HFA-Coli [1]: 153.0 | Per1 gene expression HFA-Coli/HFA [1]: 1.227 | Per1 gene expression, HFA-Coli [1]: 803.5 | Plp gene expression HFA-Coli/HFA [1]: 1.232 | Plp gene expression, HFA-Coli [1]: 2108 | Prkrir gene expression HFA-Coli/HFA [1]: 0.644 | Prkrir gene expression, HFA-Coli [1]: 510.0 | Ptgs1 gene expression HFA-Coli/HFA [1]: 2.280 | Ptgs1 gene expression, HFA-Coli [1]: 2454 | Ptgs2 gene expression HFA-Coli/HFA [1]: 1.721 | Ptgs2 gene expression, HFA-Coli [1]: 423.8 | Purb gene expression HFA-Coli/HFA [1]: 2.438 | Purb gene expression, HFA-Coli [1]: 527.8 | Rab6ip1 gene expression HFA-Coli/HFA [1]: 2.725 | Rab6ip1 gene expression, HFA-Coli [1]: 203.0 | Rgs12 gene expression HFA-Coli/HFA [1]: 1.395 | Rgs12 gene expression, HFA-Coli [1]: 152.8 | Rhcg gene expression HFA-Coli/HFA [1]: 1.572 | Rhcg gene expression, HFA-Coli [1]: 286.5 | Rnf12 gene expression HFA-Coli/HFA [1]: 1.234 | Rnf12 gene expression, HFA-Coli [1]: 72.50 | Rpa1 gene expression HFA-Coli/HFA [1]: 1.626 | Rpa1 gene expression, HFA-Coli [1]: 353.8 | Rpl27 gene expression HFA-Coli/HFA [1]: 1.021 | Rpl27 gene expression, HFA-Coli [1]: 1768 | Rwl-pending gene expression HFA-Coli/HFA [1]: 1.623 | Rwl-pending gene expression, HFA-Coli [1]: 490.5 | Serping1 gene expression HFA-Coli/HFA [1]: 1.113 | Serping1 gene expression, HFA-Coli [1]: 153.0 | Sh3glb2 gene expression HFA-Coli/HFA [1]: 1.081 | Sh3glb2 gene expression, HFA-Coli [1]: 578.0 | Siat9 gene expression HFA-Coli/HFA [1]: 1.010 | Siat9 gene expression, HFA-Coli [1]: 1439 | Slc22a1l gene expression HFA-Coli/HFA [1]: 1.054 | Slc22a1l gene expression, HFA-Coli [1]: 1671 | Slc26a1 gene expression HFA-Coli/HFA [1]: 1.302 | Slc26a1 gene expression, HFA-Coli [1]: 203.5 | Srpk2 gene expression HFA-Coli/HFA [1]: 0.480 | Srpk2 gene expression, HFA-Coli [1]: 312.2 | Tacc2 gene expression HFA-Coli/HFA [1]: 2.279 | Tacc2 gene expression, HFA-Coli [1]: 179.5 | Tccr gene expression HFA-Coli/HFA [1]: 0.821 | Tccr gene expression, HFA-Coli [1]: 682.0 | Tcl1 gene expression HFA-Coli/HFA [1]: 1.688 | Tcl1 gene expression, HFA-Coli [1]: 290.2 | Tcp11 gene expression HFA-Coli/HFA [1]: 1.222 | Tcp11 gene expression, HFA-Coli [1]: 536.5 | Thsd1 gene expression HFA-Coli/HFA [1]: 1.373 | Thsd1 gene expression, HFA-Coli [1]: 477.8 | Tiam2 gene expression HFA-Coli/HFA [1]: 7.565 | Tiam2 gene expression, HFA-Coli [1]: 160.8 | Tnfsf13b gene expression HFA-Coli/HFA [1]: 2.153 | Tnfsf13b gene expression, HFA-Coli [1]: 256.8 | Tuba4 gene expression HFA-Coli/HFA [1]: 1.623 | Tuba4 gene expression, HFA-Coli [1]: 799.2 | Ugcg gene expression HFA-Coli/HFA [1]: 0.625 | Ugcg gene expression, HFA-Coli [1]: 1158 | Usp15 gene expression HFA-Coli/HFA [1]: 1.355 | Usp15 gene expression, HFA-Coli [1]: 85.00 | Ybx2 gene expression HFA-Coli/HFA [1]: 1.478 | Ybx2 gene expression, HFA-Coli [1]: 164.8 | Zdhhc3 gene expression HFA-Coli/HFA [1]: 1.710 | Zdhhc3 gene expression, HFA-Coli [1]: 357.8
